What was measured:
Ramos = test: Antitumor activity against human Ramos cells; assay type: functional, cell-based
[1] = target: T1, 3-hydroxy-3-methylglutaryl-coenzyme A reductase (Homo sapiens, UniProt P04035); test: Inhibition of HMG-CoA Reductase (unknown origin)
T1 sequence (P04035 whole entry): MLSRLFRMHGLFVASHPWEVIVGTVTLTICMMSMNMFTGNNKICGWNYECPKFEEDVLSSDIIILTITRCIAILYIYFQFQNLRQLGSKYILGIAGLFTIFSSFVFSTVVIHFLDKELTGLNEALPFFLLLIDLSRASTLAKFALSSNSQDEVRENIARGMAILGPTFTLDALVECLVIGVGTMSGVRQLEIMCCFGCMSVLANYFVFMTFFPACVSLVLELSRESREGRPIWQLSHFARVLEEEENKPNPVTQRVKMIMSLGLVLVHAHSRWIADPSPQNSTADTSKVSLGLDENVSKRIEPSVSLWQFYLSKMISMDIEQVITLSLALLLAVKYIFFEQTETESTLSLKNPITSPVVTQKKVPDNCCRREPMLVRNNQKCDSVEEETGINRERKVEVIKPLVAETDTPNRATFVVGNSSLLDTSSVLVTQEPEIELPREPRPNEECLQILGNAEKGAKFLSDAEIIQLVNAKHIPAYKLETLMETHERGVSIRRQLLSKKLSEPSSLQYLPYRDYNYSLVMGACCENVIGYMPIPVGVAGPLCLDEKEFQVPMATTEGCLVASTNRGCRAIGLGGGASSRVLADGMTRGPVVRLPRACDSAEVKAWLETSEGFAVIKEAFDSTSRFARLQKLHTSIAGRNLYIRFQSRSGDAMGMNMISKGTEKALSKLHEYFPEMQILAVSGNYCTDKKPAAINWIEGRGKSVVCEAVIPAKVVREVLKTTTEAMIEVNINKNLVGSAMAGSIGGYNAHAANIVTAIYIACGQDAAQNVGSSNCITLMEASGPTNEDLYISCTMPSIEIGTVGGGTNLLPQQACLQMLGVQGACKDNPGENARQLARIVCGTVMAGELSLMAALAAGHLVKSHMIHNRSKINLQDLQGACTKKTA

| Structure (SMILES) | IC50 (Ramos) [µM] | IC50 [1] [µM] |
| --- | --- | --- |
| Cc1cccc(P(=O)(CNCc2ccccc2)c2cccc(C)c2)c1 | 38 |  |
| CC(C)c1ccc(-c2ccc(F)cc2)n1CC[C@@H]1C[C@@H](O)CC(=O)O1 |  | 0.23 |
| [2H]C([2H])(NCc1ccccc1)P(=O)(c1cccc(C)c1)c1cccc(C)c1 | 4.2 |  |
| CC(C)c1c(C(=O)Nc2ccccc2)c(-c2ccccc2)c(-c2ccc(F)cc2)n1CC[C@@H]1C[C@@H](O)CC(=O)O1 [ATORVASTATIN LACTONE] |  | 0.007 |
